In patent publication US20080138299A1, “Oral Pharmaceuticals or Oral Hygiene Products Comprising Licorice Flavonoid Extract” (Hawley & Hazel (BVI) Company Limited, priority 2006, published 2008):

Tests used:
IL-1β = assay: KB cell Luminex liquid-phase chip analysis; type: cell-based, human; conditions: KB cell supernatant, higher = stronger, test concentration not given
Description: (§1) During the experiment, the KB cell inoculated in the cultivating plate is treated with or without (control) Licochalone A. After the treatment, the supernatant of the cultivated liquid is collected and stored in −80 C refrigerator. The PGE2 in the supernatant is detected by Enzyme-linked immunsorbent assay, and Luminex multifunctional liquid-phase chip analysis system is used for the detection of GM-CSF, TNF-α, IL-1β and IL-6 (the result is shown in Table 3).
(§2) The 96-well plate is enclosed for 30 min. The fluorescent microspheres are added into the 96-well plate after dilution. Add the standard sample and the sample to be measured, stay overnight at 4° C. In the next day, the supernatant is discarded, and 50 μl GM-CSF, TNF-α, IL-1β and IL-6 antibodies are added to each hole. After rinsing 4 times, the 96-well plate is placed in a shaking table under ambient temperature to shade from light for 1 h, rinse 4 times, and add PE labeled with streptavidin and shade from light for 15 min at room temperature. Rinse 4 times, the microspheres are suspended in the rinsing buffer, and the 96-well plate is immediately placed on Luminex (Luminex Corporation, Austin, Tx.) to analyze.

TNF-α = assay: KB cell Luminex liquid-phase chip analysis; type: cell-based, human; conditions: KB cell supernatant, higher = stronger, test concentration not given
Description: as §1, §2

IL-6 = assay: KB cell Luminex liquid-phase chip analysis; type: cell-based, human; conditions: KB cell supernatant, higher = stronger, test concentration not given
Description: as §1, §2

GM-CSF = assay: KB cell Luminex liquid-phase chip analysis; type: cell-based, human; conditions: KB cell supernatant, higher = stronger, test concentration not given
Description: as §1, §2

[1] = system: Streptococcus mutans (S. m) ATCC 25175; assay: Broth micro-dilution MIC; type: cell-based; conditions: no unit in table; dilution series 250-0.12 mg/L, ceiling 250 ppm; 37 °C, 18-24 h; smaller = stronger
Source text: (§3) 3. The Inhibition Experiment of Licochalone A and Total Flavonoid Extracts of Zhangguo Licorice (Glycyrrhiza inflate Betal) on Primary Oral Pathogenic Microorganisms 3.1 The Cultivation of the Bacteria Species: Streptococcus mutans (ATCC 25175), Actinomyces naeslundii (ATCC 12104), Actinobacillus actinomycetemicomtans (ATCC 43717), Porphyromonas gingivalis (ATCC 33277), Listed as Following:
(§4) A single colony is picked from the Trypticase Digested Soybean peptone agar blood plate (TSA5B) ordinarily stored bacteria species to Trypticase Digested Soybean peptone broth (TSB), cultivated in microaerobic environment (only P.g needs anaerobic cultivation) with 95% air, 5% CO2 at 37.0° C.±1.0° C., wherein S.m is cultivated for 18-24 h, and the remaining three are cultivated for 40-48 h. Then sterile TSB is used to adjust the turbidity of the bacteria suspension to 0.5^#McFarland standard, equivalent to 1.0×10^8 CFU/mL.
(§5) After performing a series of 2-fold dilutions to the anti-bacteria pharmaceuticals, rationally inoculate with tested bacteria, and observe after incubated at 37° C. for 18-24 h, wherein the lowest pharmaceutical concentration that inhibits the growth visible to the naked eye of the tested bacteria is the minimum inhibitive concentration (MIC) of the tested pharmaceuticals to the tested bacteria. The operating steps are:
(§6) a. Preparation of the stock solution of antibacterial pharmaceutical: Prepare 1% stock solution of various antibacterial pharmaceuticals dope with 100% pure ethanol as solvent. The prepared stock solution is filtered to eliminate bacteria, and is distributed into small portions to be used. b. Range of measured concentration: the present experiment chooses 250 ppm as the ceiling measured concentration of the anti-bacteria pharmaceutical. c. Measuring method: micro-dilution method.
(§7) First add 100 μL TSB to each hole of the 96-well plate, and add 100 μL sterile anti-bacteria pharmaceutical solution which is diluted 10-folds (1000 mg/l) to each hole of the first column, then blow on each hole of the first column repeatedly for 7-8 times using multi-channel micropipet, transfer 100 μL sample to the second column after sufficiently mixing the pharmaceutical with TSB, and after similarly blowing for 7-8 times, transfer 100 μL sample to the third column, and analogously to the last column, thus the concentration of pharmaceutical is 2-fold gradiently diluted, from 500 mg/L of the first column to 0.24 mg/L of the last column (the 12th column).
(§8) The bacteria to be tested and standard bacteria are prepared as above. Dilute the bacteria solution with TSB to a bacteria content of about 10^6 CFU/mL. Then inoculate 100 μL for each hole. Thus the final diluted concentration of the anti-bacteria pharmaceutical in each line are 250, 125, 62.5 . . . 0.12 mg/L, and the final inoculation quantity is about […] or 5×10^6 bacteria each hole; the 96-well plate is placed on a microshaker and is shook for 1 min to mix the solution in each hole. The microwell plate is covered and is sealed with adhesive paper to reduce the evaporation during the incubation process and is placed in a humid box, cultivated in microaerobic environment with 95% air, 5% CO2 (or in anaerobic environment with 90% N2, 5% H2, 5% CO2) at 37.0° C.±1.0° C. for 18-24 h. The 96-well plate is placed under an enzyme-labeling instrument, and by comparing the growing characteristics of the tested bacteria with the standard bacteria, the lowest anti-bacteria pharmaceutical concentration contained in the hole without bacteria is taken as MIC.

[2] = system: Actinobacillus actinomycetemcomitans (A. a) ATCC 43717; assay: Broth micro-dilution MIC; type: cell-based; conditions: no unit in table; dilution series 250-0.12 mg/L, ceiling 250 ppm; 37 °C, 18-24 h; smaller = stronger
Source text: as §3, §4, §5, §6, §7, §8

[3] = system: Porphyromonas gingivalis (P. g) ATCC 33277; assay: Broth micro-dilution MIC; type: cell-based; conditions: no unit in table; dilution series 250-0.12 mg/L, ceiling 250 ppm; anaerobic, 37 °C, 18-24 h; smaller = stronger
Source text: as §3, §4, §5, §6, §7, §8

[4] = system: Actinomyces naeslundii (A. n) ATCC 12104; assay: Broth micro-dilution MIC; type: cell-based; conditions: no unit in table; dilution series 250-0.12 mg/L, ceiling 250 ppm; 37 °C, 18-24 h; smaller = stronger
Source text: as §3, §4, §5, §6, §7, §8

C=CC(C)(C)c1cc(/C=C/C(=O)c2ccc(O)cc2)c(OC)cc1O [Licochalone A, 5-(1,1-Dimethylallyl)-4,4′-dihydroxy-2-methoxychalcone]
IL-1β (interleukin) (anti-inflammatory ability) (IL-1β): 19% | TNF-α (Tumor Necrosis Factor) (anti-inflammatory ability) (TNF-α): 95% | IL-6 (interleukin) (anti-inflammatory ability) (IL-6): 50% | GM-CSF (anti-inflammatory ability) (GM-CSF): 8% | minimum inhibitive concentration (MIC), S. m [1]: 7.8 | minimum inhibitive concentration (MIC), A. a [2]: >250 | minimum inhibitive concentration (MIC), P. g [3]: 1.9 | minimum inhibitive concentration (MIC), A. n [4]: 7.8

Oc1cc(Cl)ccc1Oc1ccc(Cl)cc1Cl [Triclosan]
IL-1β (interleukin) (anti-inflammatory ability) (IL-1β): 7% | TNF-α (Tumor Necrosis Factor) (anti-inflammatory ability) (TNF-α): 81% | IL-6 (interleukin) (anti-inflammatory ability) (IL-6): 31% | GM-CSF (anti-inflammatory ability) (GM-CSF): 5% | minimum inhibitive concentration (MIC), S. m [1]: 3.9 | minimum inhibitive concentration (MIC), A. a [2]: 1.9 | minimum inhibitive concentration (MIC), P. g [3]: 7.8 | minimum inhibitive concentration (MIC), A. n [4]: 3.9
